According to ChEMBL document CHEMBL3045835, “Comparative study of conventional and microwave-assisted synthesis of some Schiff bases and their potential as antimicrobial agents” (2012):
In brackets after ≈: the same amount, converted by molar mass.

Experiments:
Assay type in all cases: functional
[1] = tested on: Escherichia coli; experiment: Antibacterial activity against Escherichia coli MTCC 1573 after 24 hr by broth dilution method; conditions: MTCC 1573, 24 h
[2] = tested on: Penicillium chrysogenum; experiment: Antifungal activity against Penicillium chrysogenum MTCC 161 at 1500 ug/ml after 18 hr by cup-plate method; conditions: MTCC 161, 18 h, read-out: DIZ
[3] = tested on: Micrococcus luteus; experiment: Antibacterial activity against Micrococcus luteus MTCC 1538 at 100 ug/ml after 18 hr by cup-plate method; conditions: MTCC 1538, 18 h, read-out: DIZ
[4] = tested on: Micrococcus luteus; experiment: Antibacterial activity against Micrococcus luteus MTCC 1538 at 1500 ug/ml after 18 hr by cup-plate method; conditions: MTCC 1538, 18 h, read-out: DIZ
[5] = tested on: Bacillus subtilis; experiment: Antibacterial activity against Bacillus subtilis MTCC 441 after 24 hr by broth dilution method; conditions: MTCC 441, 24 h
[6] = tested on: Staphylococcus aureus; experiment: Antibacterial activity against Staphylococcus aureus MTCC 1430 at 200 ug/ml after 18 hr by cup-plate method; conditions: MTCC 1430, 18 h, read-out: DIZ
[7] = tested on: Pseudomonas fluorescens; experiment: Antibacterial activity against Pseudomonas fluorescens MTCC 2421 at 500 ug/ml after 18 hr by cup-plate method; conditions: MTCC 2421, 18 h, read-out: DIZ
[8] = tested on: Bacillus subtilis; experiment: Antibacterial activity against Bacillus subtilis MTCC 441 at 100 ug/ml after 18 hr by cup plate method; conditions: MTCC 441, 18 h, read-out: DIZ
[9] = tested on: Escherichia coli; experiment: Antibacterial activity against Escherichia coli MTCC 1573 at 500 ug/ml after 18 hr by cup-plate method; conditions: MTCC 1573, 18 h, read-out: DIZ
[10] = tested on: Bacillus pumilus; experiment: Antibacterial activity against Bacillus pumilus MTCC 1456 at 500 ug/ml after 18 hr by cup-plate method; conditions: MTCC 1456, 18 h, read-out: DIZ
[11] = tested on: Aspergillus niger; experiment: Antifungal activity against Aspergillus niger MTCC 2546 at 1000 ug/ml after 18 hr by cup-plate method; conditions: MTCC 2546, 18 h, read-out: DIZ
[12] = tested on: Penicillium chrysogenum; experiment: Antifungal activity against Penicillium chrysogenum MTCC 161 at 200 ug/ml after 18 hr by cup-plate method; conditions: MTCC 161, 18 h, read-out: DIZ
[13] = tested on: Pseudomonas aeruginosa; experiment: Antibacterial activity against Pseudomonas aeruginosa MTCC 424 at 200 ug/ml after 18 hr by cup-plate method; conditions: MTCC 424, 18 h, read-out: DIZ
[14] = tested on: Bacillus pumilus; experiment: Antibacterial activity against Bacillus pumilus MTCC 1456 after 24 hr by broth dilution method; conditions: MTCC 1456, 24 h
[15] = tested on: Staphylococcus aureus; experiment: Antibacterial activity against Staphylococcus aureus MTCC 1430 at 1000 ug/ml after 18 hr by cup-plate method; conditions: MTCC 1430, 18 h, read-out: DIZ
[16] = tested on: Aspergillus niger; experiment: Antifungal activity against Aspergillus niger MTCC 2546 at 500 ug/ml after 18 hr by cup-plate method; conditions: MTCC 2546, 18 h, read-out: DIZ
[17] = tested on: Bacillus subtilis; experiment: Antibacterial activity against Bacillus subtilis MTCC 441 at 200 ug/ml after 18 hr by cup plate method; conditions: MTCC 441, 18 h, read-out: DIZ
[18] = tested on: Pseudomonas aeruginosa; experiment: Antibacterial activity against Pseudomonas aeruginosa MTCC 424 at 500 ug/ml after 18 hr by cup-plate method; conditions: MTCC 424, 18 h, read-out: DIZ
[19] = tested on: Bacillus subtilis; experiment: Antibacterial activity against Bacillus subtilis MTCC 441 at 1000 ug/ml after 18 hr by cup plate method; conditions: MTCC 441, 18 h, read-out: DIZ
[20] = tested on: Penicillium chrysogenum; experiment: Antifungal activity against Penicillium chrysogenum MTCC 161 at 100 ug/ml after 18 hr by cup-plate method; conditions: MTCC 161, 18 h, read-out: DIZ
[21] = tested on: Micrococcus luteus; experiment: Antibacterial activity against Micrococcus luteus MTCC 1538 at 1000 ug/ml after 18 hr by cup-plate method; conditions: MTCC 1538, 18 h, read-out: DIZ
[22] = tested on: Staphylococcus aureus; experiment: Antibacterial activity against Staphylococcus aureus MTCC 1430 at 1500 ug/ml after 18 hr by cup-plate method; conditions: MTCC 1430, 18 h, read-out: DIZ
[23] = tested on: Pseudomonas fluorescens; experiment: Antibacterial activity against Pseudomonas fluorescens MTCC 2421 at 1000 ug/ml after 18 hr by cup-plate method; conditions: MTCC 2421, 18 h, read-out: DIZ
[24] = tested on: Micrococcus luteus; experiment: Antibacterial activity against Micrococcus luteus MTCC 1538 at 500 ug/ml after 18 hr by cup-plate method; conditions: MTCC 1538, 18 h, read-out: DIZ
[25] = tested on: Micrococcus luteus; experiment: Antibacterial activity against Micrococcus luteus MTCC 1538 at 200 ug/ml after 18 hr by cup-plate method; conditions: MTCC 1538, 18 h, read-out: DIZ
[26] = tested on: Penicillium chrysogenum; experiment: Antifungal activity against Penicillium chrysogenum MTCC 161 after 24 hr by broth dilution method; conditions: MTCC 161, 24 h
[27] = tested on: Staphylococcus aureus; experiment: Antibacterial activity against Staphylococcus aureus MTCC 1430 at 500 ug/ml after 18 hr by cup-plate method; conditions: MTCC 1430, 18 h, read-out: DIZ

MIC [1]: 400 µg/mL (≈ 1670 µM)
MIC [5]: 400 µg/mL (≈ 1670 µM)
MIC [14]: 400 µg/mL (≈ 1670 µM)
MIC [26]: 200 µg/mL (≈ 833 µM)
Compound: O=c1c(/C=N/c2nc[nH]n2)coc2ccccc12
zone of inhibition at 1500 µg/mL [2]: 22 mm
zone of inhibition at 100 µg/mL [3]: 11 mm
zone of inhibition at 1500 µg/mL [4]: 23 mm
zone of inhibition at 200 µg/mL [6]: 13 mm
zone of inhibition at 500 µg/mL [7]: 17 mm
zone of inhibition at 100 µg/mL [8]: 12 mm
zone of inhibition at 500 µg/mL [9]: 15 mm
zone of inhibition at 500 µg/mL [10]: 17 mm
zone of inhibition at 1000 µg/mL [11]: 20 mm
zone of inhibition at 200 µg/mL [12]: 17 mm
zone of inhibition at 200 µg/mL [13]: 15 mm
zone of inhibition at 1000 µg/mL [15]: 17 mm
zone of inhibition at 500 µg/mL [16]: 19 mm
zone of inhibition at 200 µg/mL [17]: 16 mm
zone of inhibition at 500 µg/mL [18]: 16 mm
zone of inhibition at 1000 µg/mL [19]: 18 mm
zone of inhibition at 100 µg/mL [20]: 15 mm
zone of inhibition at 1000 µg/mL [21]: 18 mm
zone of inhibition at 1500 µg/mL [22]: 19 mm
zone of inhibition at 1000 µg/mL [23]: 19 mm
zone of inhibition at 500 µg/mL [24]: 16 mm
zone of inhibition at 200 µg/mL [25]: 15 mm
zone of inhibition at 500 µg/mL [27]: 14 mm
